Results from patent publication US11938122B2, “5-[[4-[2-[5-(1-hydroxyethyl)pyridin-2-yl]ethoxy]phenyl]methyl]-1,3- thiazolidine-2,4-dione for treating nonalcoholic fatty liver disease” (Minoryx Therapeutics S.L., priority 2016, dated 2024).

Experiments:
[1] = test system: major drug metabolizing cytochrome P450 (CYP) enzymes; experiment: Reversible and time-dependent inhibition (TDI) of major CYP enzymes, human liver microsomes; assay type: in vitro ADME; conditions: in vitro concentrations of 100 μM or lower
Protocol: Inhibition was screened using a cocktail incubation with CYP specific substrates for eight major drug metabolizing CYP enzymes (CYPs 1A2, 2A6, 2B6, 2C8, 2C9, 2C19, 2D6 and 3A4) in incubations with a pool of human liver microsomes. In reversible inhibition, MIN-102 was incubated with buffer, microsomes, cofactor NADPH and CYP-specific substrate cocktail mix for 15 min. In TDI study, buffer and microsomes were preincubated with MIN-102 in the presence and absence of cofactor NADPH for 0 or 30 min to elucidate the possible time-dependency of inhibition. Secondary incubation was conducted with CYP-specific substrate cocktail mix for 30 min. MIN-102 was used at final concentrations of 0.01, 0.1, 1, 10, and 100 μM in both assays.

CYP1A2 = experiment: CYP induction in cryopreserved human hepatocytes; assay type: in vitro ADME; conditions: 50 μM, hepatocytes from 3 human donors
CYP3A4 = experiment: CYP induction in cryopreserved human hepatocytes; assay type: in vitro ADME; conditions: 50 μM, hepatocytes from 3 human donors
[2] = Stability in the hepatocyte incubation medium; assay type: in vitro ADME; conditions: 50 μM, 24-hour incubation
Protocol: The stability of MIN-102 in the incubation medium was assayed in parallel at the highest test concentration (50 μM) and quantified in incubation medium.

EAE mouse model = experiment: Experimental autoimmune encephalitis (EAE) mouse model; assay type: in vivo; conditions: EAE mice, highest dose (125 mg/Kg/day oral, bid)
Description: The anti-inflammatory potential of MIN-102 was studied using an EAE mouse model, e.g., as described in Linker and Lee, Experimental & Translational Stroke Medicine 1:5 (2009). This model for neuroinflammation is a highly reproducible and long established model of multiple sclerosis. The model is based on the induction of an autoimmune reaction upon the exposure of the animals to myelin antigens. Several days after inoculation, e.g., 9-12 days, the mouse develops a relapsing-remitting or chronic disease course.
In the study, female C57Bl/6 mice were sensitized by a subcutaneous injection of myelin oligodendrocyte glycoprotein peptide fragment 35-55 (MOG35-55) in Freund's Complete Adjuvant (CFA) at the tail base. Starting at five days after disease induction, the animals were treated at three different oral doses of MIN-102, 17, 50, and 125 mg/Kg/day, using bid administration. From day five, the animals were weighed and scored for the appearance of disease symptoms. The levels of neutrophils were measured in mice from the naïve, vehicle, and the highest MIN-102 dose. Data were analyzed by one-way ANOVA followed by the Dunnett's post-hoc test versus the vehicle group (*, p <0.05). Results are presented as mean+standard error of the mean of n=10, except n=9 for the highest dose of MIN-102, and n=4 for the naïve group.

[3] = test system: MCD diet NASH mouse model; experiment: Methionine Choline Deficient (MCD) diet NASH mouse model; assay type: in vivo; conditions: 62.5 mg/kg BID oral, 7 weeks
Description: According to one NASH model in mice (See Verdelho Machado et al., PlosOne May 27:10(5):e0127991 (2015)), male C57BL/6 inbred mice, aged 8 weeks, were obtained from Charles River, France. During the acclimation phase, standard (control chow) diet (RM1 (E) 801492, SDS) and tap water was provided ad libitum. Mice were then fed a Methionine Choline Deficient (MCD) diet (ref #A02082002B from Research Diets, USA) supplemented without or with the test item, provided ad libitum. All procedures were performed in accordance with the Guide for the Care and Use of Laboratory Animals (revised 1996 and 2011, 2010/63/EU) and French laws. 20 animals were housed in ventilated and enriched housing cages (310×125×127 mm^3) throughout the experimental phase. Animals' cages litters were changed at least once a week. They were housed in groups of 10 animals during the whole study, on a normal 12 hours light cycle (at 08:00 pm lights off), 22±2° C. and 50±10% relative humidity.
After the acclimation period, mice (n=20) were weighed and randomized into 2 homogenous treatment groups based on body weight (n=10/group), put on a MCD diet, and treated BID orally with vehicle or MIN-102 for 7 weeks. Body weight was measured 3 times/week until the end of the experimental phase. At 7 weeks of diet/treatment, mice were weighed and treated at ˜08:00 am in the morning, then bled (maximal volume/EDTA) at ˜1:00 pm. Plasma was then immediately isolated and stored at […] prior to assay plasma ALT and AST. The plasma volume left over was stored at […] for eventual additional analysis.
After blood collection, mice were sacrificed by cervical dislocation under isoflurane anesthesia and exsanguinated with sterile saline. Liver was collected and weighted. A ˜20 mg liver sample (weight recorded) was dissected for hepatic total cholesterol and triglycerides levels. A 0.5 cm^3 liver sample was frozen in isopentane for oil red O staining. […]
A NAFLD scoring system (NAS) adapted from Kleiner et al. (Hepatology. 41(6):1313-1321 (2005)) was used. An individual mouse NAS total score was calculated for each animal by summing up the score for (1) hepatocellular steatosis, (2) liver inflammation, (3) lobular fibrosis, and (4) hepatocyte ballooning. […]
Data are expressed as mean±SEM. […]
The preventive effects of MIN-102 was evaluated in a 7-week Methionine Choline Deficient (MCD) diet NASH mouse model (Verdelho Machado et al.). […]
After the acclimation period, C57BL6/J male mice (n=20) were weighed and randomized into 2 homogenous treatment groups based on body weight (n=10/group), put on a MCD diet, and treated BID orally with a vehicle or MIN-102 (125 mg/Kg/day) for 7 weeks. Body weight was measured 3 times/week until the end of the experimental phase. […]

stability in incubation medium [2]: remained stable
Compound: CC(O)c1ccc(CCOc2ccc(CC3SC(=O)NC3=O)cc2)nc1 (racemic) [MIN-102, 5-[[4-[2-[5-(1-hydroxyethyl)pyridin-2-yl]ethoxy]phenyl]methyl]-1,3-thiazolidine-2,4-dione]
reversible or time-dependent inhibition towards major CYP enzymes [1]: did not cause remarkable reversible or time-dependent inhibition
increase in activity of CYP1A2 probe reaction (CYP1A2): less than 20 % of the respective positive control induction
increase in CYP3A4 mRNA (CYP3A4): less than 20 % of the respective positive control induction
increase in activity of CYP3A4 probe reaction (CYP3A4): less than 20 % of the respective positive control induction
Lymphocyte number (EAE mouse model): 3.6 ± 2.3 ×10^3 cells/μl
N/L ratio (EAE mouse model): 0.52
Neutrophil number (EAE mouse model): 1.9 ± 0.6 ×10^3 cells/μl
Mean NAS group score ([3]; mean±SEM): 0.44±01
reduction in hepatic triglycerides levels ([3]; vs vehicle): 92%
reduction of plasma ALT level ([3]; vs vehicle): 78%
reduction of plasma AST level ([3]; vs vehicle): 55%
